In patent publication US8076487B2, “Pyridone derivative and herbicide” (Kumiai Chemical Industry Co., Ltd., priority 2006, dated 2011):

Tests used:
Type in all cases: in vivo
[1] = system: Japanese bulrush (Scirpus juncoides Roxb.); assay: Test Example 1: herbicidal effect by soil application to paddy field; settings: paddy field soil application; active ingredient 1,000 g per 1 hectare; wettable powder added dropwise to water surface the day after sowing; examined on the 21st day after application
Method in brief: (§1)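 Under greenhouse conditions, seeds sown on puddled paddy soil in 100 cm2 pots under 3 cm of standing water received the test compound; injury was assessed with a standard scoring scheme three weeks (day 21) after treatment.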

[2] = system: early watergrass (Echinochloa oryzicola Vasing); assay: as above; settings: paddy field soil application; active ingredient 1,000 g per 1 hectare; wettable powder added dropwise to water surface the day after sowing; examined on the 21st day after application
Method in brief: as §1

[3] = system: heartshape false pickerelweed (Monochoria vaginalis (Burm.f.) C.Presl); assay: as above; settings: paddy field soil application; active ingredient 1,000 g per 1 hectare; wettable powder added dropwise to water surface the day after sowing; examined on the 21st day after application
Method in brief: as §1

[4] = system: barnyardgrass (Echinochloa crus-galli (L.) P. Beauv. var. crus-galli); assay: Test Example 2: herbicidal effect by soil application to upland field; settings: soil surface spray, upland field soil, 1,000 g active ingredient per hectare, 21st day after application
Method in brief: (§2)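 Seeds were sown in field soil, covered, and the soil surface sprayed with a water-diluted wettable powder at 1,000 g active ingredient per hectare in 1,000 L/ha. Plants grew in a greenhouse, and herbicidal effect was rated against a standard scale 21 days after application.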

[5] = system: green foxtail (Setaria viridis (L.) P. Beauv.); assay: as above; settings: soil surface spray, upland field soil, 1,000 g active ingredient per hectare, 21st day after application
Method in brief: as §2

[6] = system: slender amaranth (Amaranthus viridis L.); assay: as above; settings: soil surface spray, upland field soil, 1,000 g active ingredient per hectare, 21st day after application
Method in brief: as §2

[7] = system: velvetleaf (Abutilon theophrasti medicus); assay: as above; settings: soil surface spray, upland field soil, 1,000 g active ingredient per hectare, 21st day after application
Method in brief: as §2

[8] = system: barnyardgrass (Echinochloa crus-galli (L.) P. Beauv. var. crus-galli); assay: Test Example 3: herbicidal effect by application to upland field (foliage treatment); settings: foliage treatment, 1,000 g active ingredient per 1 hectare, 14th day after application, greenhouse
Method in brief: (§3)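 Two weeks after sowing in field soil under greenhouse conditions, seedlings receive a top-down foliar spray of wettable powder diluted in water at an active-ingredient rate of 1,000 g per hectare. Effect is rated against a standard 14 days post-treatment.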

[9] = system: green foxtail (Setaria viridis (L.) P. Beauv.); assay: as above; settings: foliage treatment, 1,000 g active ingredient per 1 hectare, 14th day after application, greenhouse
Method in brief: as §3

[10] = system: slender amaranth (Amaranthus viridis L.); assay: as above; settings: foliage treatment, 1,000 g active ingredient per 1 hectare, 14th day after application, greenhouse
Method in brief: as §3

[11] = system: velvetleaf (Abutilon theophrasti medicus); assay: as above; settings: foliage treatment, 1,000 g active ingredient per 1 hectare, 14th day after application, greenhouse
Method in brief: as §3

Row | SMILES | herbicidal effect, Scirpus juncoides Roxb. [1] | herbicidal effect, Echinochloa oryzicola Vasing [2] | herbicidal effect, Monochoria vaginalis (Burm. f.) C. Presl [3] | herbicidal effect (index), Barnyardgrass [4] | herbicidal effect (index), Green Foxtail [5] | herbicidal effect (index), Slender Amaranth [6] | herbicidal effect (index), Velvetleaf [7] | herbicidal effect, Barnyardgrass [8] | herbicidal effect, Green Foxtail [9] | herbicidal effect, Slender Amaranth [10] | herbicidal effect, Velvetleaf [11]
1 | CCCS(=O)(=O)Oc1c(C(=O)c2ccc(C(F)(F)F)n(-c3cc(F)ccc3F)c2=O)cnn1C [IV-84] | 5 (90% or more of herbicidal effect and crop phytotoxicity) | 5 (90% or more of herbicidal effect and crop phytotoxicity) | 5 (90% or more of herbicidal effect and crop phytotoxicity) | 5 (90% or more of herbicidal effect and crop phytotoxicity) | 5 (90% or more of herbicidal effect and crop phytotoxicity) | 5 (90% or more of herbicidal effect and crop phytotoxicity) | 5 (90% or more of herbicidal effect and crop phytotoxicity) | 4 (70 to less than 90% of herbicidal effect and crop phytotoxicity) | 3 (50 to less than 70% of herbicidal effect and crop phytotoxicity) | 4 (70 to less than 90% of herbicidal effect and crop phytotoxicity) | 5 (90% or more of herbicidal effect and crop phytotoxicity)
2 | CNn1c(C(F)(F)F)ccc(C(=O)c2cnn(C)c2O)c1=O [IV-146] | 5 (90% or more of herbicidal effect and crop phytotoxicity) | 5 (90% or more of herbicidal effect and crop phytotoxicity) | 5 (90% or more of herbicidal effect and crop phytotoxicity) | 5 (90% or more of herbicidal effect and crop phytotoxicity) | 5 (90% or more of herbicidal effect and crop phytotoxicity) | 5 (90% or more of herbicidal effect and crop phytotoxicity) | 5 (90% or more of herbicidal effect and crop phytotoxicity) | 5 (90% or more of herbicidal effect and crop phytotoxicity) | 5 (90% or more of herbicidal effect and crop phytotoxicity) | 5 (90% or more of herbicidal effect and crop phytotoxicity) | 5 (90% or more of herbicidal effect and crop phytotoxicity)
3 | Cn1ncc(C(=O)c2ccc(C(F)(F)F)n(C)c2=O)c1OC(=O)OCc1ccccc1 [IV-199] | 5 (90% or more of herbicidal effect and crop phytotoxicity) | 5 (90% or more of herbicidal effect and crop phytotoxicity) | 5 (90% or more of herbicidal effect and crop phytotoxicity) | 5 (90% or more of herbicidal effect and crop phytotoxicity) | 4 (70 to less than 90% of herbicidal effect and crop phytotoxicity) | 5 (90% or more of herbicidal effect and crop phytotoxicity) | 5 (90% or more of herbicidal effect and crop phytotoxicity) | 4 (70 to less than 90% of herbicidal effect and crop phytotoxicity) | 3 (50 to less than 70% of herbicidal effect and crop phytotoxicity) | 5 (90% or more of herbicidal effect and crop phytotoxicity) | 5 (90% or more of herbicidal effect and crop phytotoxicity)
